From US12084419B2, “Cell metabolism modulating compounds and uses thereof” (CRESCENTA BIOSCIENCES, priority 2020, dated 2024)

Molecular target: T1, His6 tagged human recombinant FABP4 (Homo sapiens, UniProt P15090)
T1 construct: purchased Cayman Chemicals 10009549
Test: FABP4 TR-FRET assay: displacement of BODIPY FL C12 fatty acid
Conditions: triplicates, inhibition of BODIPY FL C12 binding; for inhibition at 1 µM: 1 μM compound; for inhibition at 10 µM: 10 μM compound
Excerpt: Activity of compounds with FABP4 was profiled using a Terbium (Tb) based time resolved fluorescence energy transfer (TR-FRET) assay. The assay measures the compound mediated displacement of the fluorescent fatty acid BODIPY FL C12 (Thermo Fisher; catalog number D3822) from His6 tagged human recombinant FABP4 (His6-FABP4; Cayman Chemicals, catalog number 10009549) via recording the energy transfer from TB donor molecule on anti-His6-tag antibody to acceptor BODIPY moiety. Briefly, compounds were prepared at a concentration of 0.362 mM and 0.0362 mM, and BODIPY FL C12 was prepared at 4.2 μM, in DMSO. 1.2 μL of each compound or DMSO (vehicle control) and 1.2 μL of BODIPY FL C12 were added into the wells of a 384-well black polypropylene plate. His6-FABP4 and Tb anti-His6 antibody were prepared in the assay buffer (25 mM Tris/HCl, pH 7.4, 0.4 mg/ml y-globulins, 0.010% NP-40, 1 mM DTT) at a concentration of 83 nM and 49.6 nM, respectively. The protein and antibody solutions were then mixed at a ratio of 34:7 (v/v) and incubated on ice for 30 minutes. The assay was initiated by adding 41 μL of the resulting protein/antibody solution into the wells containing the compounds and BODIPY FL C12. The plate was centrifuged and incubated at room temperature for 10 min. The TR-FRET signals were recorded using an EnVision Multilabel plate reader (PerkinElmer; TB excitation 320 nm, BODIPY FL C12 emission 520 nm; TB emission 615 nm). Relative fluorescence ratio (520 nm*10,000/615 nm) were used to calculate the compound mediated inhibition of BODIPY C12 FL fatty acid binding to FABP4. […] Glucose consumption and FABP4 inhibition is shown below in Table 3 below.

T1 sequence (P15090 whole entry): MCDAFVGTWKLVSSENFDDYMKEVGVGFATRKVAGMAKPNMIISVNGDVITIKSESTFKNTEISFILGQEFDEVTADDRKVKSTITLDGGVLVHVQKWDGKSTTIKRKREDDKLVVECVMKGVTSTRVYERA

`CCCCCCC1CCCc2c(n(Cc3cccc(F)n3)c3c(C(=O)O)cccc23)C1` (centres unmarked) [5-[(6-fluoropyridin-2-yl)methyl]-7-hexyl-5H,6H,7H,8H,9H,10H-cyclohepta[b]indole-4-carboxylic acid] was tested. Which inhibition at 1 µM did it give?
Its inhibition at 1 µM is 86.5%.

What about the inhibition at 10 µM of the same molecule?
Its inhibition at 10 µM is 91.8%.

Which inhibition at 1 µM does the source give for `CCCCCCC1CCCc2c(n(Cc3cccc(C(=O)O)n3)c3c(C(=O)O)cccc23)C1` (centres unmarked) [6-({4-carboxy-7-hexyl-5H,6H,7H,8H,9H,10H-cyclohepta[b]indol-5-yl}methyl)pyridine-2-carboxylic acid] here?
The inhibition at 1 µM was 91.6%.

And the inhibition at 10 µM?
The inhibition at 10 µM was 96.5%.

For `CCCCC1CCCCc2c1n(Cc1cccc(C(N)=O)c1)c1c(C(=O)O)cccc21` (centres unmarked) [6-butyl-5-[(3-carbamoylphenyl)methyl]-5H,6H,7H,8H,9H,10H-cyclohepta[b]indole-4-carboxylic acid], which inhibition at 1 µM is on record?
The inhibition at 1 µM was 91.4%.

What about the inhibition at 10 µM of the same molecule?
Its inhibition at 10 µM is 95.2%.

With `CCCCC1CCCCc2c1n(Cc1cccc(C#N)c1)c1c(C(=O)O)cccc21` (centres unmarked) [6-butyl-5-[(3-cyanophenyl)methyl]-5H,6H,7H,8H,9H,10H-cyclohepta[b]indole-4-carboxylic acid] as the molecule, how does the inhibition at 1 µM read?
The inhibition at 1 µM was 71.3%.

And the inhibition at 10 µM?
Its inhibition at 10 µM is 85.7%.

What does the source list for `CCCCC1CCCc2c(n(Cc3ccccc3C(N)=O)c3c(C(=O)O)cccc23)C1` (centres unmarked) [7-butyl-5-[(2-carbamoylphenyl)methyl]-5H,6H,7H,8H,9H,10H-cyclohepta[b]indole-4-carboxylic acid]?
inhibition at 1 µM: 71.3%; inhibition at 10 µM: 94.5%

Which inhibition at 1 µM does the source give for `CCCCC1CCCc2c(n(Cc3ccccc3C#N)c3c(C(=O)O)cccc23)C1` (centres unmarked) [7-butyl-5-[(2-cyanophenyl)methyl]-5H,6H,7H,8H,9H,10H-cyclohepta[b]indole-4-carboxylic acid] here?
Its inhibition at 1 µM is 91.5%.

And the inhibition at 10 µM?
The inhibition at 10 µM was 87.3%.

How did the inhibition at 1 µM turn out when `CCCCC1CCCc2c(n(Cc3ccccc3F)c3c(C(=O)O)cccc23)C1` (centres unmarked) [7-butyl-5-[(2-fluorophenyl)methyl]-5H,6H,7H,8H,9H,10H-cyclohepta[b]indole-4-carboxylic acid] was run?
Its inhibition at 1 µM is 92.1%.

And the inhibition at 10 µM?
The inhibition at 10 µM was 88.1%.

`CCCCC1CCCc2c(n(Cc3ccnc(OC)c3)c3c(C(=O)O)cccc23)C1` (centres unmarked) [7-butyl-5-[(2-methoxypyridin-4-yl)methyl]-5H,6H,7H,8H,9H,10H-cyclohepta[b]indole-4-carboxylic acid] was tested. Which inhibition at 1 µM did it give?
Its inhibition at 1 µM is 83.4%.

And the inhibition at 10 µM?
Its inhibition at 10 µM is 88.2%.

Which results are given for `CCCCC1CCCc2c(n(Cc3ccccc3C)c3c(C(=O)O)cccc23)C1` (centres unmarked) [7-butyl-5-[(2-methylphenyl)methyl]-5H,6H,7H,8H,9H,10H-cyclohepta[b]indole-4-carboxylic acid]?
inhibition at 1 µM: 101%; inhibition at 10 µM: 95.3%

Which results are given for `CCCCC1CCCc2c(n(Cc3cccc(C(N)=O)c3)c3c(C(=O)O)cccc23)C1` (centres unmarked) [7-butyl-5-[(3-carbamoylphenyl)methyl]-5H,6H,7H,8H,9H,10H-cyclohepta[b]indole-4-carboxylic acid]?
inhibition at 1 µM: 89.4%; inhibition at 10 µM: 117%

How did the inhibition at 1 µM turn out when `CCCCC1CCCc2c(n(Cc3cccc(C(N)=O)c3)c3c(C(=O)NCCO)cccc23)C1` (centres unmarked) [7-butyl-5-[(3-carbamoylphenyl)methyl]-N-(2-hydroxyethyl)-5H,6H,7H,8H,9H,10H-cyclohepta[b]indole-4-carboxamide] was run?
The inhibition at 1 µM was 10.2%.

For `CCCCC1CCCc2c(n(Cc3cccc(C(=O)O)c3)c3c(C(=O)O)cccc23)C1` (centres unmarked) [7-butyl-5-[(3-carboxyphenyl)methyl]-5H,6H,7H,8H,9H,10H-cyclohepta[b]indole-4-carboxylic acid], which inhibition at 1 µM is on record?
Its inhibition at 1 µM is 91.8%.

What about the inhibition at 10 µM of the same molecule?
The inhibition at 10 µM was 100%.

What does the source list for `CCCCC1CCCc2c(n(Cc3cccc(Cl)c3)c3c(C(=O)O)cccc23)C1` (centres unmarked) [7-butyl-5-[(3-chlorophenyl)methyl]-5H,6H,7H,8H,9H,10H-cyclohepta[b]indole-4-carboxylic acid]?
inhibition at 1 µM: 84.2%; inhibition at 10 µM: 83%

How did the inhibition at 1 µM turn out when `CCCCC1CCCc2c(n(Cc3cccc(C#N)c3)c3c(C(=O)O)cccc23)C1` (centres unmarked) [7-butyl-5-[(3-cyanophenyl)methyl]-5H,6H,7H,8H,9H,10H-cyclohepta[b]indole-4-carboxylic acid] was run?
The inhibition at 1 µM was 73.5%.

And the inhibition at 10 µM?
Its inhibition at 10 µM is 112%.

With `CCCCC1CCCc2c(n(Cc3cccc(C#N)c3)c3c(C(=O)NCCO)cccc23)C1` (centres unmarked) [7-butyl-5-[(3-cyanophenyl)methyl]-N-(2-hydroxyethyl)-5H,6H,7H,8H,9H,10H-cyclohepta[b]indole-4-carboxamide] as the molecule, how does the inhibition at 1 µM read?
Its inhibition at 1 µM is 6.65%.

What about the inhibition at 10 µM of the same molecule?
The inhibition at 10 µM was 42.7%.

With `CCCCC1CCCc2c(n(Cc3cccc(F)c3)c3c(C(=O)O)cccc23)C1` (centres unmarked) [7-butyl-5-[(3-fluorophenyl)methyl]-5H,6H,7H,8H,9H,10H-cyclohepta[b]indole-4-carboxylic acid] as the molecule, how does the inhibition at 1 µM read?
Its inhibition at 1 µM is 97%.

What about the inhibition at 10 µM of the same molecule?
Its inhibition at 10 µM is 90.6%.

How did the inhibition at 1 µM turn out when `CCCCC1CCCc2c(n(Cc3cccc(O)c3)c3c(C(=O)O)cccc23)C1` (centres unmarked) [7-butyl-5-[(3-hydroxyphenyl)methyl]-5H,6H,7H,8H,9H,10H-cyclohepta[b]indole-4-carboxylic acid] was run?
Its inhibition at 1 µM is 98.7%.

What about the inhibition at 10 µM of the same molecule?
The inhibition at 10 µM was 96.1%.

Which inhibition at 1 µM does the source give for `CCCCC1CCCc2c(n(Cc3cccc(OC)c3)c3c(C(=O)O)cccc23)C1` (centres unmarked) [7-butyl-5-[(3-methoxyphenyl)methyl]-5H,6H,7H,8H,9H,10H-cyclohepta[b]indole-4-carboxylic acid] here?
The inhibition at 1 µM was 91.7%.

What about the inhibition at 10 µM of the same molecule?
Its inhibition at 10 µM is 86.5%.

For `CCCCC1CCCc2c(n(Cc3cccc(C)c3)c3c(C(=O)O)cccc23)C1` (centres unmarked) [7-butyl-5-[(3-methylphenyl)methyl]-5H,6H,7H,8H,9H,10H-cyclohepta[b]indole-4-carboxylic acid], which inhibition at 1 µM is on record?
Its inhibition at 1 µM is 94.8%.

And the inhibition at 10 µM?
Its inhibition at 10 µM is 91%.

`CCCCC1CCCc2c(n(Cc3ccc(C(N)=O)cc3)c3c(C(=O)O)cccc23)C1` (centres unmarked) [7-butyl-5-[(4-carbamoylphenyl)methyl]-5H,6H,7H,8H,9H,10H-cyclohepta[b]indole-4-carboxylic acid] was tested. Which inhibition at 1 µM did it give?
Its inhibition at 1 µM is 92.6%.

And the inhibition at 10 µM?
Its inhibition at 10 µM is 95.5%.

What does the source list for `CCCCC1CCCc2c(n(Cc3ccc(C)cc3)c3c(C(=O)O)cccc23)C1` (centres unmarked) [7-butyl-5-[(4-methylphenyl)methyl]-5H,6H,7H,8H,9H,10H-cyclohepta[b]indole-4-carboxylic acid]?
inhibition at 1 µM: 106%; inhibition at 10 µM: 92.4%

What does the source list for `CCCCC1CCCc2c(n(Cc3cccnc3)c3c(C(=O)O)cccc23)C1` (centres unmarked) [7-butyl-5-[(pyridin-3-yl)methyl]-5H,6H,7H,8H,9H,10H-cyclohepta[b]indole-4-carboxylic acid]?
inhibition at 1 µM: 71.6%; inhibition at 10 µM: 83.8%

What does the source list for `CCCCCCC1CCCc2c(n(Cc3ccnc(OC)c3)c3c(C(=O)O)cccc23)C1` (centres unmarked) [7-hexyl-5-[(2-methoxypyridin-4-yl)methyl]-5H,6H,7H,8H,9H,10H-cyclohepta[b]indole-4-carboxylic acid]?
inhibition at 1 µM: 78.1%; inhibition at 10 µM: 82.8%

For `CCCCCCC1CCCc2c(n(Cc3ccccc3C)c3c(C(=O)O)cccc23)C1` (centres unmarked) [7-hexyl-5-[(2-methylphenyl)methyl]-5H,6H,7H,8H,9H,10H-cyclohepta[b]indole-4-carboxylic acid], which inhibition at 1 µM is on record?
Its inhibition at 1 µM is 92.7%.

And the inhibition at 10 µM?
The inhibition at 10 µM was 84.2%.

`CCCCCCC1CCCc2c(n(Cc3cccc(OC)c3)c3c(C(=O)O)cccc23)C1` (centres unmarked) [7-hexyl-5-[(3-methoxyphenyl)methyl]-5H,6H,7H,8H,9H,10H-cyclohepta[b]indole-4-carboxylic acid] was tested. Which inhibition at 10 µM did it give?
Its inhibition at 10 µM is 93.6%.

For `CCCCCCC1CCCc2c(n(Cc3cccc(C)c3)c3c(C(=O)O)cccc23)C1` (centres unmarked) [7-hexyl-5-[(3-methylphenyl)methyl]-5H,6H,7H,8H,9H,10H-cyclohepta[b]indole-4-carboxylic acid], which inhibition at 1 µM is on record?
Its inhibition at 1 µM is 98.6%.

And the inhibition at 10 µM?
The inhibition at 10 µM was 94.7%.

Which results are given for `CCCCCCC1CCCc2c(n(Cc3ccc(C)cc3)c3c(C(=O)O)cccc23)C1` (centres unmarked) [7-hexyl-5-[(4-methylphenyl)methyl]-5H,6H,7H,8H,9H,10H-cyclohepta[b]indole-4-carboxylic acid]?
inhibition at 1 µM: 95.6%; inhibition at 10 µM: 91.7%

What does the source list for `CCCCCCC1CCCc2c(n(Cc3cccnc3)c3c(C(=O)O)cccc23)C1` (centres unmarked) [7-hexyl-5-[(pyridin-3-yl)methyl]-5H,6H,7H,8H,9H,10H-cyclohepta[b]indole-4-carboxylic acid]?
inhibition at 1 µM: 105%; inhibition at 10 µM: 97.3%

For `CCCCCCC1CCCc2c(n(Cc3ccnc(C(F)(F)F)c3)c3c(C(=O)O)cccc23)C1` (centres unmarked) [7-hexyl-5-{[2-(trifluoromethyl)pyridin-4-yl]methyl}-5H,6H,7H,8H,9H,10H-cyclohepta[b]indole-4-carboxylic acid], which inhibition at 1 µM is on record?
Its inhibition at 1 µM is 87.6%.

What about the inhibition at 10 µM of the same molecule?
Its inhibition at 10 µM is 94.7%.

Which inhibition at 10 µM does the source give for `CCCCCCC1CCCc2c(n(Cc3cccc(C(F)(F)F)n3)c3c(C(=O)O)cccc23)C1` (centres unmarked) [7-hexyl-5-{[6-(trifluoromethyl)pyridin-2-yl]methyl}-5H,6H,7H,8H,9H,10H-cyclohepta[b]indole-4-carboxylic acid] here?
Its inhibition at 10 µM is 79.8%.

`CCCCCCC1CCc2c(n(Cc3ccccc3C(N)=O)c3c(C(=O)O)cccc23)C1` (centres unmarked) [9-[(2-carbamoylphenyl)methyl]-2-hexyl-2,3,4,9-tetrahydro-1H-carbazole-8-carboxylic acid] was tested. Which inhibition at 1 µM did it give?
Its inhibition at 1 µM is 31.1%.

What about the inhibition at 10 µM of the same molecule?
Its inhibition at 10 µM is 80.7%.
